Test results from ChEMBL document CHEMBL3351419, “Orally bioavailable 6-chloro-7-methoxy-4(1H)-quinolones efficacious against multiple stages of Plasmodium” (J Med Chem, 2014).
pEC50: −log10 of the molar value. Converted amounts (≈) assume the structure as drawn. Values belong to the molecule of their own block, whether it stands above or below them.

Legend:
Plasmodium falciparum [1] = assay: Antimalarial activity against multi-drug-resistant Plasmodium falciparum W2 infected in human type A+ erythrocytes assessed as growth inhibition after 72 hrs by SYBR Green I assay; type: functional, organism-based; conditions: W2, 72 h
Plasmodium falciparum [2] = assay: Antimalarial activity against multi-drug-resistant Plasmodium falciparum TM90-C2B infected in human type A+ erythrocytes assessed as growth inhibition after 72 hrs by SYBR Green I assay; type: functional, organism-based
[3] = Resistance index, ratio of EC50 for multi-drug-resistant Plasmodium falciparum TM90-C2B infected in human type A+ erythrocytes to EC50 for multi-drug-resistant Plasmodium falciparum W2 infected in human type A+ erythrocytes; type: functional
J774 = assay: Cytotoxicity against mouse J774 cells after 72 hrs by CellTiter 96 assay; type: cell-based; conditions: J774, 72 h
[4] = Cytotoxicity index, ratio of EC50 for mouse J774 cells to EC50 for multi-drug-resistant Plasmodium falciparum TM90-C2B infected in human type A+ erythrocytes; type: toxicity, cell-based; conditions: read-out: Ratio EC50
[5] = octanol/water, pH 7.4
Plasmodium berghei [6] = assay: Antimalarial activity against Plasmodium berghei ANKA expressing GFP infected in Balb/c mouse assessed as inhibition of parasitemia at 50 mg/kg, po qd administered as single dose on day 3 to 5 of exposure measured on day 6 post exposure by in vivo thomson test relative to control; type: functional
Plasmodium berghei [7] = assay: Antimalarial activity against Plasmodium berghei ANKA expressing GFP infected in Balb/c mouse assessed as inhibition of parasitemia at 10 mg/kg, po qd administered as single dose on day 3 to 5 of exposure measured on day 6 post exposure by in vivo thomson test relative to control; type: functional
Plasmodium berghei [8] = assay: Antimalarial activity against Plasmodium berghei ANKA expressing GFP infected in Balb/c mouse assessed as mouse survival at 50 mg/kg, po qd administered as single dose on day 3 to 5 of exposure measured on day 6 post exposure by in vivo thomson test relative to control; type: functional
Plasmodium berghei [9] = assay: Antimalarial activity against Plasmodium berghei ANKA expressing GFP infected in Balb/c mouse assessed as mouse survival at 10 mg/kg, po qd administered as single dose on day 3 to 5 of exposure measured on day 6 post exposure by in vivo thomson test relative to control; type: functional
[10] = Aqueous solubility of the compound at pH 7.4; type: physicochemical; conditions: buffer
Plasmodium berghei [11] = assay: Antimalarial activity against Plasmodium berghei ANKA expressing GFP infected in Balb/c mouse assessed as mouse cured from disease at 10 mg/kg, po qd administered as single dose on day 3 to 5 of exposure measured on day 30 post exposure by in vivo thomson test relative to control; type: functional

SMILES: COc1cc2[nH]c(C)c(-c3ccccc3CO)c(=O)c2cc1Cl
pEC50 (Plasmodium falciparum [1]): 6.59
pEC50 (Plasmodium falciparum [2]): 6.56
Ratio EC50 [3]: 1.08
pEC50 (J774): < 4.52
selectivity ratio [4]: > 109

SMILES: COc1cc2[nH]c(C)c(-c3cc4ccccc4s3)c(=O)c2cc1Cl
pEC50 (Plasmodium falciparum [1]): 7.14
pEC50 (Plasmodium falciparum [2]): 7.61
Ratio EC50 [3]: 0.35
pEC50 (J774): < 4.55
selectivity ratio [4]: > 1130

logD [5]: 5.68
SMILES: C(=C\c1ccccc1)/CN1CCN(C(c2ccccc2)c2ccccc2)CC1 [CINNARIZINE]

SMILES: COc1cc2[nH]c(C)c(-c3ccc(CO)cc3)c(=O)c2cc1Cl
pEC50 (Plasmodium falciparum [1]): 6.81
pEC50 (Plasmodium falciparum [2]): 7.03
Ratio EC50 [3]: 0.61
pEC50 (J774): < 4.52
selectivity ratio [4]: > 323
inhibition in vivo at 50 mg/kg (Plasmodium berghei [6]): < 1%
inhibition in vivo at 10 mg/kg (Plasmodium berghei [7]): < 1%
mouse survival time at 50 mg/kg (Plasmodium berghei [8]): 0 days
survival time at 10 mg/kg (Plasmodium berghei [9]): 0 days

SMILES: COc1cc2[nH]c(C)c(-c3ccc(C)cc3C)c(=O)c2cc1Cl
pEC50 (Plasmodium falciparum [1]): 8.04
pEC50 (Plasmodium falciparum [2]): 8.50
Ratio EC50 [3]: 0.35
pEC50 (J774): 5.43
selectivity ratio [4]: 1180

SMILES: COc1cc2[nH]c(C)c(-c3ccc(Oc4ccc(OC(F)(F)F)cc4)cc3C)c(=O)c2cc1Cl
pEC50 (Plasmodium falciparum [1]): 9.51
pEC50 (Plasmodium falciparum [2]): 9.19
Ratio EC50 [3]: 2.07
pEC50 (J774): < 4.69
selectivity ratio [4]: > 31600
solubility kinetic [10]: < 2 µM
inhibition in vivo at 50 mg/kg (Plasmodium berghei [6]): 98%
inhibition in vivo at 10 mg/kg (Plasmodium berghei [7]): 99%
survival time at 10 mg/kg (Plasmodium berghei [9]): 23 days
Activity (Plasmodium berghei [11]): 100%
logD [5]: 2.1

SMILES: COc1cc2[nH]c(C)c(-c3ccc(C)cc3)c(=O)c2cc1Cl
pEC50 (Plasmodium falciparum [1]): 7.61
pEC50 (Plasmodium falciparum [2]): 8.13
Ratio EC50 [3]: 0.3
pEC50 (J774): < 4.50
selectivity ratio [4]: > 4350

SMILES: COc1cc2[nH]c(C)c(-c3ccco3)c(=O)c2cc1Cl
pEC50 (Plasmodium falciparum [1]): 7.47
pEC50 (Plasmodium falciparum [2]): 8.07
Ratio EC50 [3]: 0.25
pEC50 (J774): < 4.46
selectivity ratio [4]: > 4100
inhibition in vivo at 50 mg/kg (Plasmodium berghei [6]): < 1%
inhibition in vivo at 10 mg/kg (Plasmodium berghei [7]): < 1%
mouse survival time at 50 mg/kg (Plasmodium berghei [8]): 0 days
survival time at 10 mg/kg (Plasmodium berghei [9]): 0 days

logD [5]: 0.68
SMILES: CC(C)(C)NCC(O)COc1cccc2c1CC(O)C(O)C2 (stereo not given) [NADOLOL]

SMILES: COc1cc2[nH]c(C)c(-c3cccc4c3oc3ccccc34)c(=O)c2cc1Cl
pEC50 (Plasmodium falciparum [1]): 7.31
pEC50 (Plasmodium falciparum [2]): 7.47
Ratio EC50 [3]: 0.68
pEC50 (J774): < 4.59
selectivity ratio [4]: > 765

SMILES: CCc1ccccc1-c1c(C)[nH]c2cc(OC)c(Cl)cc2c1=O
pEC50 (Plasmodium falciparum [1]): 7.21
pEC50 (Plasmodium falciparum [2]): 6.80
Ratio EC50 [3]: 2.59
pEC50 (J774): 4.79
selectivity ratio [4]: 102

SMILES: COc1cc2[nH]c(C)c(-c3ccc(C(C)=O)cc3)c(=O)c2cc1Cl
pEC50 (Plasmodium falciparum [1]): 6.11
pEC50 (Plasmodium falciparum [2]): 7.32
Ratio EC50 [3]: 0.06
pEC50 (J774): < 4.53
selectivity ratio [4]: > 605

SMILES: COc1cc2[nH]c(C)c(-c3ccc(OC)c(F)c3F)c(=O)c2cc1Cl
pEC50 (Plasmodium falciparum [1]): 6.80
pEC50 (Plasmodium falciparum [2]): 6.39
Ratio EC50 [3]: 2.57
pEC50 (J774): < 4.56
selectivity ratio [4]: > 67.8

SMILES: COc1cc2[nH]c(C)c(-c3ccoc3)c(=O)c2cc1Cl
pEC50 (Plasmodium falciparum [1]): 7.88
pEC50 (Plasmodium falciparum [2]): 8.73
Ratio EC50 [3]: 0.14
pEC50 (J774): < 4.46
selectivity ratio [4]: > 18600

SMILES: COc1cc2[nH]c(C)c(-c3c(C)cc(C)cc3C)c(=O)c2cc1Cl
pEC50 (Plasmodium falciparum [1]): 7.34
pEC50 (Plasmodium falciparum [2]): 7.33
Ratio EC50 [3]: 1.01
pEC50 (J774): 5.52
selectivity ratio [4]: 64.6

SMILES: COc1cc2[nH]c(C)c(-c3ccc(OCc4ccccc4)cc3)c(=O)c2cc1Cl
pEC50 (Plasmodium falciparum [1]): 7.97
pEC50 (Plasmodium falciparum [2]): 8.89
Ratio EC50 [3]: 0.12
pEC50 (J774): < 4.61
selectivity ratio [4]: > 19300

SMILES: COc1cc2[nH]c(C)c(-c3c(F)cccc3F)c(=O)c2cc1Cl
pEC50 (Plasmodium falciparum [1]): 7.45
pEC50 (Plasmodium falciparum [2]): 8.06
Ratio EC50 [3]: 0.24
pEC50 (J774): < 4.53
selectivity ratio [4]: > 3450

SMILES: CCCSc1ccc2nc(NC(=O)OC)[nH]c2c1 [ALBENDAZOLE]
solubility kinetic [10]: 6.1 µM (≈ 1.62 µg/mL)

SMILES: COc1cc2[nH]c(C)c(-c3ccc(C(C)C)cc3)c(=O)c2cc1Cl
pEC50 (Plasmodium falciparum [1]): 8.18
pEC50 (Plasmodium falciparum [2]): 8.57
Ratio EC50 [3]: 0.4
pEC50 (J774): < 4.53
selectivity ratio [4]: > 11000

SMILES: COc1cc2[nH]c(C)c(-c3ccc(C(F)(F)F)cc3F)c(=O)c2cc1Cl
pEC50 (Plasmodium falciparum [1]): 7.67
pEC50 (Plasmodium falciparum [2]): 7.98
Ratio EC50 [3]: 0.48
pEC50 (J774): < 4.59
selectivity ratio [4]: > 2500

SMILES: COc1cc2[nH]c(C)c(-c3ccc(C(C)(C)C)cc3)c(=O)c2cc1Cl
pEC50 (Plasmodium falciparum [1]): 7.18
pEC50 (Plasmodium falciparum [2]): 6.94
pEC50 (J774): < 4.55
